What all share (format): functional
Assay [1] has as its system Enterococcus faecalis. Put plainly: Antibacterial activity against vancomycin-resistant Enterococcus faecalis ATCC 51575 after 18 hrs by broth dilution method. The settings on record: ATCC 51575, 18 h. For orientation: Broth dilution looks for growth in wells or tubes with falling amounts of substance.
Assay [2] deals with Klebsiella pneumoniae. Description: Antibacterial activity against Klebsiella pneumoniae ATCC 13882 after 18 hrs by broth dilution method. Particulars: ATCC 13882, 18 h.
Assay [3] concerns Escherichia coli. Put plainly: Antibacterial activity against TolC deficient Escherichia coli 701 after 18 hrs by broth dilution method. Particulars: Escherichia coli, 701, 18 h.
Another assay concerns Bacillus anthracis. Put plainly: Antibacterial activity against Bacillus anthracis Sterne after 18 hrs by broth dilution method.
The subject of the next assay is Bacillus subtilis. Description: Antibacterial activity against Bacillus subtilis BD54 after 18 hrs by broth dilution method. The settings on record: BD54, 18 h.
In assay [4] the test system is Escherichia coli. Description: Antibacterial activity against Escherichia coli ATCC 29425 after 18 hrs by broth dilution method. Particulars: ATCC 29425, 18 h.
Assay [5] relates to Staphylococcus aureus. Put plainly: Antibacterial activity against Staphylococcus aureus ATCC 25923 after 18 hrs by broth dilution method. Particulars: ATCC 25923, 18 h.
Assay [6] has as its system Pseudomonas aeruginosa. Description: Antibacterial activity against Pseudomonas aeruginosa PAO1 harboring oprM deltamexAB after 18 hrs by broth dilution method. The settings on record: PAO1, 18 h.
Assay [7] concerns Stenotrophomonas maltophilia. Description: Antibacterial activity against Stenotrophomonas maltophilia ATCC 13637 after 18 hrs by broth dilution method. The settings on record: ATCC 13637, 18 h.
For assay [8], the system named is Burkholderia cepacia. Description: Antibacterial activity against Burkholderia cepacia ATCC 39277 after 18 hrs by broth dilution method. The settings on record: ATCC 39277, 18 h.
Assay [9] concerns Pseudomonas aeruginosa. Put plainly: Antibacterial activity against Pseudomonas aeruginosa PAO1 ATCC BAA-47 after 18 hrs by broth dilution method. Particulars: PAO1 ATCC BAA-47, 18 h.
Assay [10] deals with Burkholderia cepacia. Description: Antibacterial activity against Burkholderia cepacia ATCC 55792 after 18 hrs by broth dilution method. The settings on record: ATCC 55792, 18 h.
A further assay concerns Acinetobacter baumannii. Put plainly: Antibacterial activity against Acinetobacter baumannii ATCC 19606 after 18 hrs by broth dilution method. Particulars: ATCC 19606 = CIP 70.34 = JCM 6841, 18 h.
Assay [11] relates to Klebsiella pneumoniae. Put plainly: Antibacterial activity against Klebsiella pneumoniae ATCC 700603 after 18 hrs by broth dilution method. The settings on record: ATCC 700603, 18 h.
In assay [12] the test system is Enterococcus faecalis. Put plainly: Antibacterial activity against Enterococcus faecalis ATCC 29212 after 18 hrs by broth dilution method. Particulars: ATCC 29212, 18 h.
The subject of assay [13] is Staphylococcus aureus. Description: Antibacterial activity against methicillin-resistant Staphylococcus aureus 1094 after 18 hrs by broth dilution method. Particulars: Staphylococcus aureus, 1094, 18 h.
The test system of assay [14] is Escherichia coli. Put plainly: Antibacterial activity against Escherichia coli 700 expressing TolC after 18 hrs by broth dilution method. The settings on record: Escherichia coli, 700, 18 h.
Assay [15] concerns Staphylococcus aureus. Description: Antibacterial activity against Staphylococcus aureus ATCC 25923 after 16 to 18 hrs by agar dilution method. In general terms: In agar dilution the substance is mixed into plates at graded concentrations.
For assay [16], the system named is Enterococcus faecalis. Put plainly: Antibacterial activity against Enterococcus faecalis ATCC 29212 after 16 to 18 hrs by agar dilution method.
Assay [17] concerns Escherichia coli. Description: Antibacterial activity against Escherichia coli ATCC 29425 after 16 to 18 hrs by agar dilution method.

Converted amounts (≈) assume the structure as drawn.

Take `CCn1ccc(=O)c2cc(F)c(N3CCN(C=O)CC3)cc21`: the MIC against Enterococcus faecalis [1] is more than 80 µg/mL; in the assay on Klebsiella pneumoniae [2], more than 80 µg/mL; in the assay with Escherichia coli [3], 40 µg/mL (≈ 132 µM); with Bacillus anthracis, more than 80 µg/mL; with Bacillus subtilis, more than 80 µg/mL; in the assay with Escherichia coli [4], 40 µg/mL (≈ 132 µM). The MIC was more than 80 µg/mL against Staphylococcus aureus [5]; 80 µg/mL (≈ 264 µM) in the assay with Pseudomonas aeruginosa [6]; more than 80 µg/mL in assay [7]; more than 80 µg/mL with Burkholderia cepacia [8]; more than 80 µg/mL against Pseudomonas aeruginosa [9]; more than 80 µg/mL against Burkholderia cepacia [10]. Also, the MIC against Acinetobacter baumannii is more than 80 µg/mL; against Klebsiella pneumoniae [11], more than 80 µg/mL; with Enterococcus faecalis [12] it was more than 80 µg/mL; in the assay with Staphylococcus aureus [13], more than 80 µg/mL; in the assay on Escherichia coli [14] it was 40 µg/mL (≈ 132 µM); in the assay with Staphylococcus aureus [15], more than 64 µg/mL. Moreover, the MIC in the assay with Enterococcus faecalis [16] and in the assay on Escherichia coli [17] was more than 64 µg/mL in each case.
In the case of `O=c1ccn(C2CC2)c2cc(N3CCNCC3)c(F)cc12`, the MIC with Enterococcus faecalis [1], in the assay on Klebsiella pneumoniae [2], in the assay on Escherichia coli [3], in the assay on Bacillus anthracis, against Bacillus subtilis and in the assay with Escherichia coli [4] was more than 80 µg/mL in each case. Further, the minimal inhibitory concentration (MIC) against Staphylococcus aureus [5] was more than 80 µg/mL; in the assay with Pseudomonas aeruginosa [6], 80 µg/mL (≈ 278 µM); in assay [7] it was more than 80 µg/mL; in the assay with Burkholderia cepacia [8], more than 80 µg/mL; in the assay on Pseudomonas aeruginosa [9], more than 80 µg/mL; in the assay on Burkholderia cepacia [10], more than 80 µg/mL. Moreover, the MIC is more than 80 µg/mL with Acinetobacter baumannii; more than 80 µg/mL with Klebsiella pneumoniae [11]; more than 80 µg/mL with Enterococcus faecalis [12]; more than 80 µg/mL in the assay on Staphylococcus aureus [13]; more than 80 µg/mL with Escherichia coli [14]; more than 64 µg/mL in the assay with Staphylococcus aureus [15]. Further, the MIC in the assay with Enterococcus faecalis [16] and against Escherichia coli [17] was more than 64 µg/mL in each case.
`O=CN1CCN(c2cc3c(cc2F)c(=O)c(C(=O)O)cn3C2CC2)CC1`: the MIC was 2.5 µg/mL (≈ 6.96 µM) against Enterococcus faecalis [1]; 0.156 µg/mL (≈ 0.434 µM) in the assay on Klebsiella pneumoniae [2]; not above 0.078 µg/mL with Escherichia coli [3]; 0.235 µg/mL (≈ 0.654 µM) against Bacillus anthracis; 0.117 µg/mL (≈ 0.326 µM) with Bacillus subtilis; 0.5 µg/mL (≈ 1.39 µM) against Escherichia coli [4]. The MIC against Staphylococcus aureus [5] is 0.313 µg/mL (≈ 0.871 µM); against Pseudomonas aeruginosa [6], not above 0.078 µg/mL; in [7], 1.25 µg/mL (≈ 3.48 µM); against Burkholderia cepacia [8], 0.313 µg/mL (≈ 0.871 µM); against Pseudomonas aeruginosa [9], 10 µg/mL (≈ 27.8 µM); with Burkholderia cepacia [10], 1.25 µg/mL (≈ 3.48 µM). For the same compound, the MIC in the assay on Acinetobacter baumannii worked out at 2.5 µg/mL (≈ 6.96 µM); in the assay on Klebsiella pneumoniae [11], 5 µg/mL (≈ 13.9 µM); against Enterococcus faecalis [12], 0.625 µg/mL (≈ 1.74 µM); against Staphylococcus aureus [13], 40 µg/mL (≈ 111 µM); with Escherichia coli [14] it was 0.313 µg/mL (≈ 0.871 µM); against Staphylococcus aureus [15] it was 0.5 µg/mL (≈ 1.39 µM). For the same compound, the MIC in the assay with Enterococcus faecalis [16] stood at 1 µg/mL (≈ 2.78 µM); in the assay with Escherichia coli [17], 0.5 µg/mL (≈ 1.39 µM).
Take `CC1CN(c2c(F)cc3c(=O)ccn(C4CC4)c3c2F)CCN1` (stereo not given): the MIC with Enterococcus faecalis [1] is more than 80 µg/mL; with Klebsiella pneumoniae [2] it was more than 80 µg/mL; against Escherichia coli [3] it was 15 µg/mL (≈ 47 µM); in the assay on Bacillus anthracis, 80 µg/mL (≈ 251 µM); against Bacillus subtilis, more than 80 µg/mL; in the assay with Escherichia coli [4] it was more than 80 µg/mL. For the same compound, the MIC is more than 80 µg/mL in the assay with Staphylococcus aureus [5]; 40 µg/mL (≈ 125 µM) with Pseudomonas aeruginosa [6]; more than 80 µg/mL in [7]; more than 80 µg/mL against Burkholderia cepacia [8]; more than 80 µg/mL with Pseudomonas aeruginosa [9]; more than 80 µg/mL in the assay on Burkholderia cepacia [10]. Besides, the MIC is more than 80 µg/mL with Acinetobacter baumannii; more than 80 µg/mL against Klebsiella pneumoniae [11]; more than 80 µg/mL against Enterococcus faecalis [12]; more than 80 µg/mL in the assay with Staphylococcus aureus [13]; more than 80 µg/mL against Escherichia coli [14]; more than 64 µg/mL with Staphylococcus aureus [15]. In addition, the MIC against Enterococcus faecalis [16] and with Escherichia coli [17] was more than 64 µg/mL each time.
On to `CCN1CCN(c2cc3c(cc2F)c(=O)ccn3C2CC2)CC1`, for which the MIC against Enterococcus faecalis [1], in the assay on Klebsiella pneumoniae [2], against Escherichia coli [3], against Bacillus anthracis, with Bacillus subtilis and in the assay on Escherichia coli [4] was more than 80 µg/mL in each case. Moreover, the MIC (in the assay with Staphylococcus aureus [5]; with Pseudomonas aeruginosa [6]; in assay [7]; against Burkholderia cepacia [8]; against Pseudomonas aeruginosa [9]; in the assay with Burkholderia cepacia [10]) was more than 80 µg/mL each time. In addition, the minimal inhibitory concentration (MIC) in the assay on Acinetobacter baumannii was more than 80 µg/mL; in the assay on Klebsiella pneumoniae [11], more than 80 µg/mL; in the assay with Enterococcus faecalis [12], more than 80 µg/mL; with Staphylococcus aureus [13] it was more than 80 µg/mL; with Escherichia coli [14], more than 80 µg/mL; against Staphylococcus aureus [15], more than 64 µg/mL. The MIC with Enterococcus faecalis [16] and against Escherichia coli [17] was more than 64 µg/mL throughout.

As a reminder, the MIC is the lowest concentration that inhibits growth of the organism. The low end stands for greater potency, the high end for weaker potency.
